Data: ChEMBL document CHEMBL4312031, “Discovery of candesartan cilexetic as a novel neddylation inhibitor for suppressing tumor growth” (Eur J Med Chem, 2020)
Activity calls are given as the source filed them. The calls are words filed in the database; no cut-off is given here.

Columns and labels:
[1] = system: A549; assay: Antitumor activity against human A549 cells xenografted in nude mouse assessed as decrease in tumor size at 60 mg/kg, ip qd measured after 22 days; type: functional, organism-based
[2] = system: A549; assay: Effect on Ub-modified protein level in human A549 cells by Western blot analysis; type: functional, cell-based
[3] = system: A549; assay: Induction of apoptosis in human A549 cells assessed as late apoptotic cells at 75 uM measured after 48 hrs by AnnexinV-FITC/propidium iodide staining based FACS analysis (reference value: 1.71 %); type: functional
[4] = biological target: T1, NEDD8-conjugating enzyme UBE2F (Homo sapiens) (UniProt Q969M7); assay: Inhibition of UBE2F in human A549 cells assessed as decrease in Cullin5-Nedd8 adduct level measured after 6 to 12 hrs by Western blot analysis; type: cell-based
T1 sequence (whole entry): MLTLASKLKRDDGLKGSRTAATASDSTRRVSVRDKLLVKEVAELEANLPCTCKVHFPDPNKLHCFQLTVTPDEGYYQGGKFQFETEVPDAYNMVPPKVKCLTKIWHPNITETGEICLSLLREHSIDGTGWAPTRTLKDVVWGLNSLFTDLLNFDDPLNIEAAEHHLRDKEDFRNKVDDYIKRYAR

[5] = system: A549; assay: Induction of apoptosis in human A549 cells assessed as late apoptotic cells at 50 uM measured after 48 hrs by AnnexinV-FITC/propidium iodide staining based FACS analysis (reference value: 1.71 %); type: functional
[6] = biological target: T2, NEDD8/Cullin-1 (Homo sapiens) (UniProt Q13616+Q15843); assay: Inhibition of Nedd8-cullin1 (unknown origin) adduct formation assessed as decrease in cullin1 neddylation at 50 uM preincubated for 10 mins followed by ATP addition and measured after 30 mins by immunoblot analysis; type: protein assay
T2 sequence (Q13616 whole entry, looked up): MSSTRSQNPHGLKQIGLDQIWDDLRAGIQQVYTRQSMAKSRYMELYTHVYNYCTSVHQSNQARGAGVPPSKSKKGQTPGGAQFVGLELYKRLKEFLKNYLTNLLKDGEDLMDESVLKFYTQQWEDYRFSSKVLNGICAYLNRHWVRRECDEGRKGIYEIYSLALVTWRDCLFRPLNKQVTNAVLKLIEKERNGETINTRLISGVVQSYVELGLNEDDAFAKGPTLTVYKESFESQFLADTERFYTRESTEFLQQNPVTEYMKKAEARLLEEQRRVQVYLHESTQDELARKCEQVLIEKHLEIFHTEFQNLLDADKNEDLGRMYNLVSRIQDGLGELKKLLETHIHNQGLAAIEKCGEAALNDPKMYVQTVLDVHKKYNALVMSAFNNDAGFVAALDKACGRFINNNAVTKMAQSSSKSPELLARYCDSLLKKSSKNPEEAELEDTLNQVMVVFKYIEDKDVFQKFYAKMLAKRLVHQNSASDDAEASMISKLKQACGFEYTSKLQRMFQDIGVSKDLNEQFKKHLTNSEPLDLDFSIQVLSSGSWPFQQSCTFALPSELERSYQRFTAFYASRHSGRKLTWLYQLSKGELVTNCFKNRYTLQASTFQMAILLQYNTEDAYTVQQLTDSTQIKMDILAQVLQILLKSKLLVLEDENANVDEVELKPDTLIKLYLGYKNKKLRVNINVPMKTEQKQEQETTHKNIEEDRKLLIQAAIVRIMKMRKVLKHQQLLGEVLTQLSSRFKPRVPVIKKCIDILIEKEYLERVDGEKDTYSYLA
T2 sequence (Q15843 whole entry, looked up): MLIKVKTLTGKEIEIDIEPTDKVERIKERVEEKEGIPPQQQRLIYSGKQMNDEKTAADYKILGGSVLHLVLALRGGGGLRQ

[7] = system: A549; assay: Inhibition of cullin-RING ligase in human A549 cells assessed as accumulation of p27 level at 50 to 125 uM and measured after 6 to 12 hrs by Western blot analysis; type: cell-based
[8] = system: T47D; assay: Antiproliferative activity against human T47D cells measured after 48 hrs by CCK8 assay; type: functional, cell-based
[9] = system: A549; assay: Antitumor activity against human A549 cells xenografted in nude mouse assessed as decrease in tumor weight at 30 mg/kg, ip qd measured after 22 days; type: functional, organism-based
[10] = system: A549; assay: Induction of apoptosis in human A549 cells assessed as early apoptotic cells at 75 uM measured after 48 hrs by AnnexinV-FITC/propidium iodide staining based FACS analysis (reference value: 2.19 %); type: functional
[11] = biological target: NEDD8/NEDD8-conjugating enzyme Ubc12 (Homo sapiens) (UniProt P61081+Q15843); assay: Inhibition of Nedd8-Ubc12 (unknown origin) assessed as decrease in Ubc12-Nedd8 adduct formation at 50 uM preincubated for 10 mins followed by ATP addition and measured after 30 mins by immunoblot analysis; type: protein-complex assay
[12] = system: A549; assay: Induction of apoptosis in human A549 cells assessed as early apoptotic cells at 25 uM measured after 48 hrs by AnnexinV-FITC/propidium iodide staining based FACS analysis (reference value: 2.19 %); type: functional
[13] = biological target: T2, NEDD8/Cullin-1 (Homo sapiens); assay: Competitive inhibition of Nedd8-cullin1 (unknown origin) adduct formation at 12.5 to 50 uM assessed as substrate Vmax by Lineweaver-Burk plot analysis; type: protein assay
[14] = biological target: SUMO-conjugating enzyme UBC9 (Homo sapiens) (UniProt P63279); assay: Inhibition of Ubc9 in human A549 cells assessed as reduction in protein sumoylation by measuring Ubc9-Sumo adduct formation at 50 to 100 uM by Western blot analysis; type: cell-based
Chain of SUMO-conjugating enzyme UBC9 (Homo sapiens) (P63279 whole entry): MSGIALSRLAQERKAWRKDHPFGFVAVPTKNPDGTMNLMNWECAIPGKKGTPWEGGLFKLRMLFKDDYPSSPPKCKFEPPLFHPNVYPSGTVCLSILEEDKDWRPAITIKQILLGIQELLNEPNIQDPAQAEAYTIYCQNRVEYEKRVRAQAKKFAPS

[15] = system: A549; assay: Cell cycle arrest in human A549 cells assessed as accumulation at G2 phase at 75 uM measured after 24 hrs by propidium iodide/RNase A staining based flow cytometry analysis (reference value: 12.69 %); type: functional
[16] = biological target: T2, NEDD8/Cullin-1 (Homo sapiens); assay: Competitive inhibition of Nedd8-cullin1 (unknown origin) adduct formation assessed as decrease in cullin1-Nedd8 adduct formation at 50 uM preincubated for 10 mins followed by ATP addition and measured after 30 mins by immunoblot analysis; type: protein assay
[17] = system: BEAS-2B; assay: Cytotoxicity against human BEAS2B cells after 48 hrs by CCK-8 assay; type: cell-based
[18] = system: A549; assay: Cell cycle arrest in human A549 cells assessed as accumulation at S phase at 50 uM measured after 24 hrs by propidium iodide/RNase A staining based flow cytometry analysis (reference value: 21.54 %); type: functional
[19] = biological target: T3, NEDD8-conjugating enzyme Ubc12 (Homo sapiens) (UniProt P61081); assay: Inhibition of UBC12 in human A549 cells assessed as decrease in Cullin1-Nedd8 adduct level at 50 uM measured after 6 to 12 hrs by Western blot analysis; type: cell-based
T3 sequence (whole entry): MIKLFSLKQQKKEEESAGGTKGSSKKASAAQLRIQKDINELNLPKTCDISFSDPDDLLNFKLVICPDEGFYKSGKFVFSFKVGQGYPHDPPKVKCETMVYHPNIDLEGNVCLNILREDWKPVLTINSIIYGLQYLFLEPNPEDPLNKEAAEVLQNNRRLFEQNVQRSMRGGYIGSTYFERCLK

[20] = system: 16HBE14o-; assay: Cytotoxicity against human 16HBE cells after 48 hrs by CCK-8 assay; type: cell-based
[21] = system: A549; assay: Cell cycle arrest in human A549 cells assessed as accumulation at sub-G1 phase at 25 uM measured after 24 hrs by propidium iodide/RNase A staining based flow cytometry analysis (reference value: 0.89 %); type: functional
[22] = biological target: T2, NEDD8/Cullin-1 (Homo sapiens); assay: Competitive inhibition of Nedd8-cullin1 (unknown origin) adduct formation at 12.5 to 50 uM assessed as increase in substrate Km by Lineweaver-Burk plot analysis; type: protein assay
[23] = system: A549; assay: Antiproliferative activity against human A549 cells measured after 48 hrs by CCK8 assay; type: functional, cell-based; conditions: A549, 48 h
[24] = system: NCI-H1299; assay: Antiproliferative activity against human H1299 cells measured after 48 hrs by CCK8 assay; type: functional, cell-based; conditions: NCI-H1299, 48 h
[25] = system: A549; assay: Inhibition of cullin-RING ligase in human A549 cells assessed as accumulation of Wee1 level at 50 to 125 uM and measured after 6 to 12 hrs by Western blot analysis; type: cell-based
[26] = system: A549; assay: Cell cycle arrest in human A549 cells assessed as accumulation at S phase at 25 uM measured after 24 hrs by propidium iodide/RNase A staining based flow cytometry analysis (reference value: 21.54 %); type: functional
[27] = system: A549; assay: Induction of apoptosis in human A549 cells assessed as late apoptotic cells at 25 uM measured after 48 hrs by AnnexinV-FITC/propidium iodide staining based FACS analysis (reference value: 1.71 %); type: functional
[28] = system: A549; assay: Inhibition of colony formation in human A549 cells measured after 10 days; type: functional, cell-based
[29] = system: A549; assay: Antitumor activity against human A549 cells xenografted in nude mouse assessed as decrease in tumor size at 30 mg/kg, ip qd measured after 22 days; type: functional, organism-based
[30] = system: A549; assay: Cell cycle arrest in human A549 cells assessed as accumulation at G2 phase at 50 uM measured after 24 hrs by propidium iodide/RNase A staining based flow cytometry analysis (reference value: 12.69 %); type: functional
[31] = system: A549; assay: Cell cycle arrest in human A549 cells assessed as accumulation at sub-G1 phase at 50 uM measured after 24 hrs by propidium iodide/RNase A staining based flow cytometry analysis (reference value: 0.89 %); type: functional
[32] = system: EKVX; assay: Antiproliferative activity against human EKVX cells measured after 48 hrs by CCK8 assay; type: functional, cell-based

## CCOc1nc2cccc(C(=O)OC(C)OC(=O)OC3CCCCC3)c2n1Cc1ccc(-c2ccccc2-c2nn[nH]n2)cc1 (configuration not stated) [CANDESARTAN CILEXETIL]
[1]
  Activity: Active
[2]
  Activity: Active
[3]
  Activity: 14.26%
[4]
  inhibition: Dose-dependent effect
[5]
  Activity: 13.36%
[6]
  inhibition: Active
[7]
  inhibition: Active
[8]
  IC50: 64.3 µM
[9]
  Activity: Active
[10]
  Activity: 36.64%
[11]
  inhibition: 100%
[12]
  Activity: 4.1%
[13]
  inhibition: Active
[14]
  inhibition: inactive
[15]
  Activity: 8.15%
[16]
  inhibition: Active
[17]
  IC50: 89.9 µM
[18]
  Activity: 11.53%
[19]
  inhibition: Active
[20]
  IC50: > 100 µM
[21]
  Activity: 9.54%
[22]
  inhibition: Active
[23]
  IC50: 63.9 µM
[24]
  IC50: 45.1 µM
[25]
  inhibition: Active
[26]
  Activity: 18.37%
[27]
  Activity: 5.5%
[28]
  inhibition: Dose-dependent effect
[29]
  Activity: Active
[30]
  Activity: 6.79%
[31]
  Activity: 20.35%
[32]
  IC50: > 100 µM
